Data published in patent publication US20240109903A1, “SUBSTITUTED HETEROCYCLES FOR TREATING CANCER” (Northwestern University, priority 2022, published 2024).
Like-named read-outs stand apart in the source and are kept apart here.

Columns and labels:
Type in all cases: cell-based
[1] = tested on: MV-4-11 acute myeloid leukemia cells; assay: CellTiter-Glo 2.0 cell viability, MV-4-11; settings: Homo sapiens
How it was run: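 MV4-11 cells plated at 3,000 cells/well on pre-dispensed compounds and incubated 3 days at 37 °C, 5% CO2. Viability read as ATP-dependent luminescence with CellTiter-Glo 2.0 after 20 min at ambient temperature, followed by regression analysis.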

CCRF-CEM = assay: NCI 60 five-dose screen CCRF-CEM; settings: Homo sapiens, five-dose
RPMI-8226 = assay: NCI 60 five-dose screen RPMI-8226; settings: Homo sapiens, five-dose
HOP-62 = assay: NCI 60 five-dose screen HOP-62; settings: Homo sapiens, five-dose
NCI-H226 = assay: NCI 60 five-dose screen NCI-H226; settings: Homo sapiens, five-dose
NCI-H23 = assay: NCI 60 five-dose screen NCI-H23; settings: Homo sapiens, five-dose
NCI-H460 = assay: NCI 60 five-dose screen NCI-H460; settings: Homo sapiens, five-dose
NCI-H522 = assay: NCI 60 five-dose screen NCI-H522; settings: Homo sapiens, five-dose
SW-620 = assay: NCI 60 five-dose screen SW-620; settings: Homo sapiens, five-dose
U251 = assay: NCI 60 five-dose screen U251; settings: Homo sapiens, U-251, five-dose
MDA-MB-435 = assay: NCI 60 five-dose screen MDA-MB-435; settings: Homo sapiens, five-dose
SK-MEL-28 = assay: NCI 60 five-dose screen SK-MEL-28; settings: Homo sapiens, five-dose
SK-MEL-5 = assay: NCI 60 five-dose screen SK-MEL-5; settings: Homo sapiens, five-dose
UACC-257 = assay: NCI 60 five-dose screen UACC-257; settings: Homo sapiens, five-dose
UACC-62 = assay: NCI 60 five-dose screen UACC-62; settings: Homo sapiens, five-dose
OVCAR-3 = assay: NCI 60 five-dose screen OVCAR-3; settings: Homo sapiens, five-dose
OVCAR-5 = assay: NCI 60 five-dose screen OVCAR-5; settings: Homo sapiens, five-dose
NCI/ADR-RES = assay: NCI 60 five-dose screen NCI/ADR-RES; settings: Homo sapiens, five-dose
A498 = assay: NCI 60 five-dose screen A498; settings: Homo sapiens, five-dose
ACHN = assay: NCI 60 five-dose screen ACHN; settings: Homo sapiens, five-dose
PC-3 = assay: NCI 60 five-dose screen PC-3; settings: Homo sapiens, five-dose
DU-145 = assay: NCI 60 five-dose screen DU-145; settings: Homo sapiens, five-dose
HS 578T = assay: NCI 60 five-dose screen HS 578T; settings: Homo sapiens, five-dose
BT-549 = assay: NCI 60 five-dose screen BT-549; settings: Homo sapiens, five-dose
MDA-MB-468 = assay: NCI 60 five-dose screen MDA-MB-468; settings: Homo sapiens, five-dose
[2] = read-out: LC50 (the source's name)
[3] = read-out: LC50 (the source's name) (converted)

OC1CCC(Cn2c(C(F)(F)F)cc3c(Cl)ncnc32)CC1 (centres unmarked) [NUCC-0226689]
IC50 ([1]; MV4-11, 72 h, MV-4-11 cells, 3 days, CellTiter-Glo 2.0, read-out: IC50 (uM) [Cell Type: MV-4-11]): 0.689 µM | IC50 ([1]; MV4-11, bound stated in text, read-out: IC50 against MV-4-11 acute myeloid leukemia cells): < 2 µM | GI50 (CCRF-CEM): 5.62 µM | IC50 (CCRF-CEM): 9.33 µM | IC (TGI) (CCRF-CEM): 100 µM | CC50 (CCRF-CEM; [2]): ≥ 100 µM | GI50 (RPMI-8226): 33.9 µM | IC50 (RPMI-8226): 58.9 µM | IC (TGI) (RPMI-8226): 100 µM | CC50 (RPMI-8226; [2]): ≥ 100 µM | GI50 (HOP-62): 20 µM | IC50 (HOP-62): 42.7 µM | IC (TGI) (HOP-62): 57.5 µM | CC50 (HOP-62; [3]): ≥ 100 µM | GI50 (NCI-H226): 23.4 µM | IC50 (NCI-H226): 100 µM | IC (TGI) (NCI-H226): 79.4 µM | CC50 (NCI-H226; [3]): ≥ 100 µM | GI50 (NCI-H23): 3.09 µM | IC50 (NCI-H23): 5.5 µM | IC (TGI) (NCI-H23): 11.5 µM | CC50 (NCI-H23; [3]): 45.7 µM | GI50 (NCI-H460): 4.79 µM | IC50 (NCI-H460): 5.5 µM | IC (TGI) (NCI-H460): 16.6 µM | CC50 (NCI-H460; [3]): 53.7 µM | GI50 (NCI-H522): 1.55 µM | IC50 (NCI-H522): 3.09 µM | IC (TGI) (NCI-H522): 3.55 µM | CC50 (NCI-H522; [3]): 8.13 µM | GI50 (SW-620): 12.3 µM | IC50 (SW-620): 17 µM | IC (TGI) (SW-620): 38.9 µM | CC50 (SW-620; [3]): ≥ 100 µM | GI50 (U251): 3.24 µM | IC50 (U251): 4.27 µM | IC (TGI) (U251): 12.9 µM | CC50 (U251; [3]): 44.7 µM | GI50 (MDA-MB-435): 12 µM | IC50 (MDA-MB-435): 20 µM | IC (TGI) (MDA-MB-435): 25.7 µM | CC50 (MDA-MB-435; [3]): 55 µM | GI50 (SK-MEL-28): 9.33 µM | IC50 (SK-MEL-28): 19.1 µM | IC (TGI) (SK-MEL-28): 30.9 µM | CC50 (SK-MEL-28; [3]): ≥ 100 µM | GI50 (SK-MEL-5): 4.79 µM | IC50 (SK-MEL-5): 8.32 µM | IC (TGI) (SK-MEL-5): 16.6 µM | CC50 (SK-MEL-5; [3]): 42.7 µM | GI50 (UACC-257): 3.39 µM | IC50 (UACC-257): 7.76 µM | IC (TGI) (UACC-257): 14.1 µM | CC50 (UACC-257; [3]): 56.2 µM | GI50 (UACC-62): 5.37 µM | IC50 (UACC-62): 11.5 µM | IC (TGI) (UACC-62): 19.5 µM | CC50 (UACC-62; [3]): 51.3 µM | GI50 (OVCAR-3): 8.13 µM | IC50 (OVCAR-3): 19.1 µM | IC (TGI) (OVCAR-3): 28.8 µM | CC50 (OVCAR-3; [3]): 97.7 µM | GI50 (OVCAR-5): 100 µM | IC50 (OVCAR-5): 100 µM | IC (TGI) (OVCAR-5): 100 µM | CC50 (OVCAR-5; [3]): ≥ 100 µM | GI50 (NCI/ADR-RES): 26.3 µM | IC50 (NCI/ADR-RES): 43.7 µM | IC (TGI) (NCI/ADR-RES): 100 µM | CC50 (NCI/ADR-RES; [3]): ≥ 100 µM | GI50 (A498): 100 µM | IC50 (A498): 100 µM | IC (TGI) (A498): 100 µM | CC50 (A498; [3]): ≥ 100 µM | GI50 (ACHN): 8.71 µM | IC50 (ACHN): 15.5 µM | IC (TGI) (ACHN): 50.1 µM | CC50 (ACHN; [3]): ≥ 100 µM | GI50 (PC-3): 8.91 µM | IC50 (PC-3): 15.5 µM | IC (TGI) (PC-3): 36.3 µM | CC50 (PC-3; [3]): ≥ 100 µM | GI50 (DU-145): 7.94 µM | IC50 (DU-145): 13.8 µM | IC (TGI) (DU-145): 20.4 µM | CC50 (DU-145; [3]): 46.8 µM | GI50 (HS 578T): 13.8 µM | IC50 (HS 578T): 93.3 µM | IC (TGI) (HS 578T): 53.7 µM | CC50 (HS 578T; [2]): ≥ 100 µM | GI50 (BT-549): 13.2 µM | IC50 (BT-549): 28.2 µM | IC (TGI) (BT-549): 28.2 µM | CC50 (BT-549; [3]): 58.9 µM | GI50 (MDA-MB-468): 2.14 µM | IC50 (MDA-MB-468): 7.08 µM | IC (TGI) (MDA-MB-468): 5.62 µM | CC50 (MDA-MB-468; [3]): 22.4 µM
